Source: patent US20260098053A1, “COMPOSITIONS AND METHODS FOR TREATING CNS DISORDERS” (SAGE THERAPEUTICS, INC., priority 2019, published 2026)

Target: [35S]-TBPS binding, rat brain cortical membranes
Experiment: Steroid inhibition of [35S]-TBPS binding
Conditions: Table 6, 3 nM [35S]-TBPS, in the presence of 5 mM GABA, read-out: IC50
How it was run: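 Washed P2 cortical membranes from Sprague-Dawley rats, in 200 mM NaCl/50 mM Na-K phosphate pH 7.4, incubated 90 min at room temp with 3 nM [35S]-TBPS, […] GABA and test drug (0.5% DMSO final). Nonspecific binding defined with […] unlabeled TBPS; filtration and scintillation counting. IC50 and Imax from non-linear curve fits, means±SEM of experiments.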

With CC(=O)[C@H]1CCC[C@H]2[C@@H]3CC[C@@H]4C[C@](C)(O)CC[C@]4(C4CC4)[C@H]3CC[C@]12C [Example 85, 1-((1S,4aS,4bS,6aR,8R,10aR,10bS,12aS)-10a-cyclopropyl-8-hydroxy-8,12a-dimethyloctadecahydrochrysen-1-yl)ethan-1-one] as the compound, how does the IC50 read?
The IC50 was under 0.1 µM.

Which IC50 does the source give for C[C@@]1(O)CC[C@@]2(C3CC3)[C@H](CC[C@H]3[C@@H]4CCC[C@@H](C(=O)Cn5cc(C#N)cn5)[C@@]4(C)CC[C@@H]32)C1 [Example 86, 1-(2-((1R,4aS,4bS,6aR,8R,10aR,10bS,12aS)-10a-cyclopropyl-8-hydroxy-8,12a-dimethyloctadecahydrochrysen-1-yl)-2-oxoethyl)-1H-pyrazole-4-carbonitrile] here?
Its IC50 is over 1 µM.

With C[C@@]1(O)CC[C@@]2(C3CC3)[C@H](CC[C@H]3[C@@H]4CCC[C@H](C(=O)Cn5cc(C#N)cn5)[C@@]4(C)CC[C@@H]32)C1 [Example 87, 1-(2-((1S,4aS,4bS,6aR,8R,10aR,10bS,12aS)-10a-cyclopropyl-8-hydroxy-8,12a-dimethyloctadecahydrochrysen-1-yl)-2-oxoethyl)-1H-pyrazole-4-carbonitrile] as the compound, how does the IC50 read?
Its IC50 is under 0.1 µM.

Which IC50 does the source give for CC[C@]12CC[C@H]3[C@@H](CC[C@@H]4C[C@](C)(O)CC[C@@]43C3CC3)[C@@H]1CC[C@@H]2C(C)=O [Example 88, 1-((3R,5R,8S,9S,10R,13S,14S,17S)-10-cyclopropyl-13-ethyl-3-hydroxy-3-methylhexadecahydro-1H-cyclopenta[a]phenanthren-17-yl)ethanone] here?
The IC50 was under 0.1 µM.

For CC[C@]12CC[C@H]3[C@@H](CC[C@@H]4C[C@](C)(O)CC[C@@]43C3CC3)[C@@H]1CC[C@@H]2C(=O)Cn1ccc(C#N)n1 [Example 90, 1-(2-((3R,5R,8S,9S,10R,13S,14S,17S)-10-cyclopropyl-13-ethyl-3-hydroxy-3-methylhexadecahydro-1H-cyclopenta[a]phenanthren-17-yl)-2-oxoethyl)-1H-pyrazole-3-carbonitrile], which IC50 is on record?
Its IC50 is under 0.1 µM.

Which IC50 does the source give for CC[C@]12CC[C@H]3[C@@H](CC[C@@H]4C[C@](C)(O)CC[C@@]43C3CC3)[C@@H]1CC[C@@H]2C(=O)Cn1nnc(C)n1 [Example 91, 1-((3R,5R,8S,9S,10R,13S,14S,17S)-10-cyclopropyl-13-ethyl-3-hydroxy-3-methylhexadecahydro-1H-cyclopenta[a]phenanthren-17-yl)-2-(5-methyl-2H-tetrazol-2-yl)ethanone] here?
Its IC50 is under 0.1 µM.

CC[C@]12CC[C@H]3[C@@H](CC[C@@H]4C[C@](C)(O)CC[C@@]43C3CC3)[C@@H]1CC[C@@H]2C(=O)Cn1nnnc1C [Example 92, 1-((3R,5R,8S,9S,10R,13S,14S,17S)-10-cyclopropyl-13-ethyl-3-hydroxy-3-methylhexadecahydro-1H-cyclopenta[a]phenanthren-17-yl)-2-(5-methyl-1H-tetrazol-1-yl)ethanone] was tested. Which IC50 did it give?
Its IC50 is under 0.1 µM.
